IC50, EC50 and Emax data for 14 compounds are collected here from US8273769B2, “Phenoxy acetic acid derivatives” (Merck Serono SA, priority 2009, dated 2012).

Assay [1] has as its system eosinophils in human whole blood. The experiment in a line: PGD2-induced eosinophil cell shape assay in human whole blood. The class given is cell-based. Particulars: 10 nM PGD2 final, flow cytometry. Here is the method: The Compounds of Formula (I) were diluted in dimethylsulphoxide so that the total volume of dimethylsulfoxide was kept constant at 2% dimethylsulphoxide (Me2SO). Serial dilutions of 200 μM to 0.09 μM were prepared. Samples of 90 μl of human blood from healthy volunteers (Centre de Transfusion Sanguine de Genève) were pre-incubated in polypropylene Falcon tubes (BD 352063) for 20 minutes in a water bath at 37° C. with 10 μl of diluted compounds. For CRTH2 activation, 100 μl PGD2 (Cayman 12010) at 20 nM was added (10 nM final) to each tube and cells were maintained at 37° C. For negative control cells were treated with PBS. After 10 minutes, cell activation was stopped with 120 μl Formaldehyde 10% (4% final, Fluka 41650) and cells were rested for 10 minutes at room temperature. Fixed cells were transferred into polypropylene tubes and then treated for 1 hour in a water bath at 37° C. with 2 ml of Triton-Surfact-Amps X-100 (Pierce 28314) at 0.166% (0.13% Triton final). After several washes with PBS (red cells lysed progressively during washes, two washes are necessary), cells were analyzed by flow cytometry on a FACSCalibur. In one embodiment, the compounds of Formula (I) of the present invention are capable of blocking the cell shape change of eosinophils induced by PGD2 in Whole Blood.

Assay [2] has as its target T1, CRTH2 (Homo sapiens, UniProt Q9Y5Y4).
T1 sequence (Q9Y5Y4 1-395): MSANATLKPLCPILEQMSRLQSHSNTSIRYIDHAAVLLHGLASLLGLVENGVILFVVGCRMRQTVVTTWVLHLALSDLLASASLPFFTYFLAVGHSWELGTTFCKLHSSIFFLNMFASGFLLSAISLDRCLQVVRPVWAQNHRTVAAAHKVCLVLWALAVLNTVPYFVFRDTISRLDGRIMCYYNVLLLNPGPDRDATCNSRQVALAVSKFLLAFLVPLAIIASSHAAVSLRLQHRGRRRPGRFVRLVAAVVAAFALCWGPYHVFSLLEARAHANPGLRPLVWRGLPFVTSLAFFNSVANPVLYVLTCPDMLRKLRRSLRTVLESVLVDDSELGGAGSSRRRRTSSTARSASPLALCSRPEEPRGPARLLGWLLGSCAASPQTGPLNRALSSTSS
Briefly: Radioligand binding Scintillation Proximity Assay ([3H]PGD2, hCRTH2-CHO cell membranes). More on the design: host or cells: CHO cells. Particulars: 1.5 nM [3H]PGD2, hCRTH2-CHO cell membranes, SPA. Summed up: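 SPA competition binding at room temperature, 90 min with agitation: 1.5 nM [3H]PGD2, 10-50 μg/ml hCRTH2-CHO membrane protein, WGA SPA beads, HEPES pH 7.4 with 10 mM MnCl2, 1% DMSO. Non-specific binding defined with 10 μM PGD2; scintillation counting.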

For assay [3], the target named is T1, CRTH2. The experiment in a line: [35S]GTPγS binding assay (CHO-CRTH2 cell membranes). The class given is biochemical. More on the design: expressed in transfected cells; host or cells: CHO-CRTH2 cells. To be noted: for IC50: antagonist mode, fixed concentration of PGD2 (EC80). As to the method:
Adherent CHO cells expressing hCRTH2 (Euroscreen, Belgium) were cultured in 225 cm^2 cell culture flasks (Corning, USA) in 30 ml of medium. After two rinses of phosphate buffered saline (PBS), cells were harvested in 10 ml of PBS containing 1 mM EDTA, centrifuged at 500×g for 5 min at 4° C. and frozen at −80° C. The pellet was re-suspended in 50 mM Tris-HCl, pH 7.4, 2 mM EDTA, 250 mM Sucrose, containing protease inhibitor cocktail tablets, (Complete EDTA-free, Roche, Germany) and incubated 30 min at 4° C. Cells were disrupted by nitrogen cavitation (Parr Instruments, USA) at 4° C. (800 p.s.i. for 30 min), and centrifuged at 500×g for 10 min at 4° C. Pellet containing nuclei and cellular debris was discarded and supernatant was centrifuged 60 min at 4° C. at 45000×g. Membrane pellet was re-suspended in storage buffer (10 mM HEPES/KOH pH 7.4, 1 mM EDTA, 250 mM sucrose, protease inhibitor cocktail tablets) using Dounce homogenization and frozen in liquid nitrogen, and stored at −80° C.
The [^35S]GTPγS assay measures the increase in guanine nucleotide exchange at G-proteins in cell membranes, resulting from agonist (PGD2) binding to CRTH2. This process can be monitored in vitro by incubating cell membranes containing G-proteins and CRTH2 with GDP and [^35S]GTPγS, a radiolabeled, hydrolysis-resistant analogue of GTP (see, Harrison et al., Life Sciences 74, 489-508, 2003). The addition of a Compounds of Formula (I) results in binding to CRTH2 and thus in an inhibition of agonist binding, which can be monitored as inhibition of the stimulation of GTP/GDP exchange.
Briefly, Compounds of Formula (I) are incubated in 96-well scintillating white polystyrene plates (Perkin Elmer, USA) in a final volume of 200 μl containing 20 mM HEPES/KOH pH 7.4, 3 mM MgCl2, 10 μg/ml Saponin, 5 μM GDP, 75 mM NaCl and 2% of dimethylsulphoxide (DMSO). Reaction is triggered by the addition of 5-10 μg of CHO-CRTH2 cell membranes and 0.15 nM [^35S]GTPγS. After 60 min incubation at 30° C., reaction is stopped by centrifugation at 700×g, at 4° C. for 10 minutes and supernatant is removed. The radioactivity coming from the [^35S]GTPγS bound on centrifuged cell membranes is recorded using a 1450 Micro-beta scintillation counter. For IC50 determination, increasing concentrations of compounds are incubated in presence of a fixed concentration of PGD2 (EC80). For EC50 measurements, compounds are incubated without addition of PGD2. Basal [^35S]GTPγS activity is determined without addition of any ligands or compounds. 100% [^35S]GTPγS activity is measured by the addition of 1 μM of PGD2.

Assay [4] deals with T1, CRTH2. Briefly: Cellular Dielectric Spectroscopy (CHO-CRTH2 cells). To be noted: for EC50 / Emax: partial agonists, agonist activity without PGD2; for IC50: antagonist mode, fixed concentration of PGD2 (EC80). The class given is cell-based. More on the design: expressed in transfected cells; host or cells: CHO-CRTH2 cells. Here is the method: Cellular Dielectric Spectroscopy (CDS) is a label-free technology based on the measurement of complex impedance changes (delta Z or dZ). Impedance (Z) is related to the ratio of voltage to current as described by Ohm's law (Z=V/I). In order to measure the changes in impedance that occur in response to receptor stimulation, mammalian cells are seeded onto a custom 96-well microliter plate that contains electrodes at the bottom of each well. Key contributors to the impedance measurements are changes in cell-substrate adherence, changes in cell shape and volume, and changes in cell-cell interactions. These factors individually or collectively affect the flow of current, influencing the magnitude and characteristics of the signal measured. G-protein coupled receptors ligand-induced activity can be measured using this technology and specific G protein coupling can be identified. Activities of reference agonist and antagonist molecules of CRTH2 have been measured using this assay and similar results were obtained compared to different functional assays.
CHO-CRTH2 cells are cultured in HAM's F12 (Lonza, Switzerland) supplemented with 10% foetal calf serum (PAA, Australia) and 400 μg/ml Geneticin. 100000 cells/well are seeded in standard 96W Microplates (MDS Analytical Technologies) and incubated at 37° C. in 5% CO2 for 24 hours. Cells are washed twice with 135 μl of cell key buffer (Hank's Balanced Salt Solution 1× (HBSS) (Invitrogen) supplemented with 10 mM HEPES pH 7.4 in presence of 1% DMSO). For EC50 determination. 15 μl of increasing concentration of Compounds of Formula (I) diluted in cell key buffer are added to the cells and agonist activity is then recorded for 25 minutes. […] Results are expressed as the amplitude between the highest and the lowest signal produced (max-min). Basal and maximum activities are measured, respectively in absence or presence of PGD2 (EC80).

SMILES strings stand for the structures.

As to `O=C(O)COc1ccc(Cl)cc1C#Cc1ccc(CO)cc1F` [Example 26, (4-chloro-2-{[2-fluoro-4-(hydroxymethyl)phenyl]ethynyl}phenoxy)acetic acid], the IC50 came to 0.679 µM in assay [1], 0.028 µM at CRTH2 [2] and 0.14 µM on CRTH2 [3].

For the compound `Cc1ccc(S(C)(=O)=O)cc1C#Cc1cc(Cl)ccc1OCC(=O)O` [Example 33, (4-chloro-2-{[2-methyl-5-(methylsulfonyl)phenyl]ethynyl}phenoxy)acetic acid], the IC50 in assay [1] was 0.064 µM; on CRTH2 [2], 0.009 µM.

Turning to `Cc1ccncc1C#Cc1cc(C#N)ccc1OCC(=O)O` [Example 44, {4-cyano-2-[(4-methylpyridin-3-yl)ethynyl]phenoxy}acetic acid], the EC50 at CRTH2 [4] is 0.115 µM; on CRTH2 [3] (partial agonist, without addition of PGD2), 0.04 µM. In addition, the Emax at CRTH2 [4] came to 59%; at CRTH2 [3] (partial agonist, without PGD2, 100% = activity with 1 μM PGD2) it was 13%. Also, on CRTH2 [2], the IC50 was found to be 0.06 µM.

With `CS(=O)(=O)c1ccc(F)c(C#Cc2cc(Cl)ccc2OCC(=O)O)c1` [Example 48, (4-chloro-2-{[2-fluoro-5-(methylsulfonyl)phenyl]ethynyl}phenoxy)acetic acid], the IC50 is 0.009 µM against CRTH2 [4], 0.095 µM in assay [1], 0.009 µM on CRTH2 [2] and 0.015 µM on CRTH2 [3]. For the same compound, at CRTH2 [4], the concentration giving a half-maximal response (EC50) was determined as 0.001 µM. Also, at CRTH2 [4], the Emax stood at 12%.

Consider `CCCc1ccc(S(C)(=O)=O)cc1C#Cc1cc(Cl)ccc1OCC(=O)O` [Example 49, (4-chloro-2-{[5-(methylsulfonyl)-2-propylphenyl]ethynyl}phenoxy)acetic acid], for which the IC50 in assay [1] worked out at 1.19 µM; on CRTH2 [2], 0.011 µM.

For the compound `CCCc1ccc(S(C)(=O)=O)cc1C#Cc1cc(C#N)ccc1OCC(=O)O` [Example 56, (4-cyano-2-{[5-(methylsulfonyl)-2-propylphenyl]ethynyl}phenoxy)acetic acid], the IC50 at CRTH2 [4] was 0.053 µM; at CRTH2 [2], 0.03 µM; at CRTH2 [3], 0.049 µM.

In turn, `CS(=O)(=O)c1ccc(F)c(C#Cc2cc(C#N)ccc2OCC(=O)O)c1` [Example 58, (4-cyano-2-{[2-fluoro-5-(methylsulfonyl)phenyl]ethynyl}phenoxy)acetic acid] registered an EC50 at CRTH2 [4] of 0.006 µM. Also, the Emax on CRTH2 [4] worked out at 32%. Besides, the IC50 was 0.095 µM in assay [1], 0.014 µM at CRTH2 [2] and 0.034 µM at CRTH2 [3].

For `CS(=O)(=O)c1ccc(Cl)c(C#Cc2cc(Cl)ccc2OCC(=O)O)c1` [Example 59, (4-chloro-2-{[2-chloro-5-(methylsulfonyl)phenyl]ethynyl}phenoxy)acetic acid], the IC50 against CRTH2 [4] amounted to 0.014 µM; on CRTH2 [2], 0.006 µM; on CRTH2 [3] it was 0.006 µM.

Take `Cc1ccc(S(=O)(=O)CC(C)C)cc1C#Cc1cc(C#N)ccc1OCC(=O)O` [Example 65, (4-cyano-2-{[5-(isobutylsulfonyl)-2-methylphenyl]ethynyl}phenoxy)acetic acid]: the IC50 in assay [1] came to 0.123 µM; at CRTH2 [2] it was 0.009 µM.

Consider `Cc1ccc(S(=O)(=O)N(C)C)cc1C#Cc1cc(Cl)ccc1OCC(=O)O` [Example 83, [4-chloro-2-({5-[(dimethylamino)sulfonyl]-2-methylphenyl}ethynyl)phenoxy]acetic acid], for which the results for the IC50 (in assay [1]; on CRTH2 [2]) were 0.077 µM and 0.007 µM, respectively.

With `Cc1ccc(S(=O)(=O)c2ccccc2)cc1C#Cc1cc(Cl)ccc1OCC(=O)O` [Example 95, (4-chloro-2-{[2-methyl-5-(phenylsulfonyl)phenyl]ethynyl}phenoxy)acetic acid], the 50% inhibitory concentration (IC50) against CRTH2 [4] was 0.084 µM; at CRTH2 [2], 0.009 µM; at CRTH2 [3] it was 0.01 µM. Besides, the Emax at CRTH2 [3] (inverse agonists, 100% of Emax = activity with 1 μM PGD2) is -17%.

Take `CCc1ccc(S(C)(=O)=O)cc1C#Cc1cc(Cl)ccc1OCC(=O)O` [Example 100, (4-chloro-2-{[2-ethyl-5-(methylsulfonyl)phenyl]ethynyl}phenoxy)acetic acid]: the IC50 against CRTH2 [4] amounted to 0.023 µM; in assay [1], 0.1 µM; on CRTH2 [2], 0.003 µM.

Consider `COCCN(C)S(=O)(=O)c1ccc(C)c(C#Cc2cc(Cl)ccc2OCC(=O)O)c1` [Example 109, {4-chloro-2-[(5-{[(2-methoxyethyl)(methyl)amino]sulfonyl}-2-methylphenyl)ethynyl]phenoxy}acetic acid], for which the IC50 worked out at 0.077 µM in assay [1] and 0.005 µM at CRTH2 [2].

As for `COCCNS(=O)(=O)c1ccc(C)c(C#Cc2cc(Cl)ccc2OCC(=O)O)c1` [Example 117, {4-chloro-2-[(5-{[(2-methoxyethyl)amino]sulfonyl}-2-methylphenyl)ethynyl]phenoxy}acetic acid], the IC50 in assay [1] was 0.088 µM; on CRTH2 [2], 0.005 µM.
